Assay results reported in PubChem BioAssay AID1648 (Sanford-Burnham Center for Chemical Genomics, 2009).
Calls of active or inactive are those of the source. How the calls were made is not given here.

Biological target: Serine/threonine-protein kinase mTOR (Homo sapiens) (UniProt P42345)
Experiment: binders of mTOR FRB domain, biophysical, NMR (AID 1648)
Conditions: NMR binding to FRB domain, chemical shift

Sequence of Serine/threonine-protein kinase mTOR (Homo sapiens) (P42345 2015-2114): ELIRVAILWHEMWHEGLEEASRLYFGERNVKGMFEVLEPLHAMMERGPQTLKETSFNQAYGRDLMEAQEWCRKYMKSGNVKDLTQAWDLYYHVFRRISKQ

Row | Compound | Kd
1 | CC(=O)Oc1c(C)c(C)c2c(c1C)CCC(C)(CCCC(C)CCCC(C)CCCC(C)C)O2 (stereo unspecified) | > 4 mM (inactive)
2 | CCn1c(-c2ccccc2)n[nH]c1=S | > 4 mM (inactive)
3 | CSc1ncnc2nc[nH]c12 | > 4 mM (inactive)
4 | O=C(NS(=O)(=O)c1ccccc1)c1ccccc1F | > 4 mM (inactive)
5 | Cn1c([O-])c([N+](C)(C)C)c(=O)n(C)c1=O | > 4 mM (inactive)
6 | Nc1[nH]c(=S)[nH]c(=O)c1-c1ccccc1 | > 4 mM (inactive)
7 | O=C1OCCC1Sc1nc2ccccc2c(=O)[nH]1 (stereo unspecified) | > 4 mM (inactive)
8 | Cn1nc(C(=O)N2CCCC2)c2ccccc2c1=O | > 4 mM (inactive)
9 | CCCCCC1C(=O)CCC1CC(=O)OC (stereo unspecified) | > 4 mM (inactive)
10 | CC(=O)Oc1cc(OC(C)=O)c2c(c1)O[C@H](c1ccc(OC(C)=O)c(OC(C)=O)c1)[C@H](OC(C)=O)C2 | > 4 mM (inactive)
11 | COc1cccc(NC(=O)c2nc3ncccn3n2)c1 | > 4 mM (inactive)
12 | Cc1nn(CC(=O)N2CCCCC2)c(=O)c2ccccc12 | > 4 mM (inactive)
13 | O=C(O)c1cccc2c1OCCO2 | > 4 mM (inactive)
14 | O=C(O)C1CCN(C(=O)c2cccs2)CC1 | > 4 mM (inactive)
15 | Cc1occc1C(=O)Nc1ccc(C(N)=O)cc1 | > 4 mM (inactive)
16 | NC(=O)CSc1nc2ccccc2[nH]1 | > 4 mM (inactive)
17 | CC(=O)c1nnc2cc(C)nn2c1C | > 4 mM (inactive)
18 | Oc1cnc2ccccc2c1CN1CCOCC1 | > 4 mM (inactive)
19 | COc1cc2nc[nH]c(=O)c2cc1OC | > 4 mM (inactive)
20 | NC(=O)CN1CCC(c2nc3ccccc3[nH]2)CC1 | > 4 mM (inactive)
21 | NCCCCN | > 4 mM (inactive)
22 | Cc1cc2c(nn1)CCc1nonc1-2 | > 4 mM (inactive)
23 | CC1=CC(=O)C2C(C)(C)CCC[C@]2(C)[C@@]1(O)CCc1ccoc1 (stereo partly specified) | > 4 mM (inactive)
24 | O=C(O)c1cc2ccccc2s1 | > 4 mM (inactive)

Row | Compound | Kd
25 | O=C(c1ccc2c(c1)OCO2)N1CCC2(CC1)OCCO2 | > 4 mM (inactive)
26 | Cc1cc(N)ccc1NC(=O)c1ccco1 | > 4 mM (inactive)
27 | NNC(=O)c1ccccc1-n1cccc1 | > 4 mM (inactive)
28 | CCCS(=O)(=O)N1CCN(c2ccccc2F)CC1 | > 4 mM (inactive)
29 | O=c1[nH]cc(COCc2ccccc2)c(=O)[nH]1 | > 4 mM (inactive)
30 | OCc1ccc(-n2cccn2)cc1 | > 4 mM (inactive)
31 | S=C(Nc1ccccc1)Nc1nncs1 | > 4 mM (inactive)
32 | Cc1ccc(CO)o1 | > 4 mM (inactive)
33 | COC(=O)c1cccc(N)c1 | > 4 mM (inactive)
34 | Cc1ccc(-c2nnc3sc(-c4ccncc4)nn23)cc1 | > 4 mM (inactive)
35 | CC(=O)Nc1ccccc1OCC(N)=O | > 4 mM (inactive)
36 | c1ccn(Cc2ccncc2)c1 | > 4 mM (inactive)
37 | N=Nc1c(O)[nH]c2ccccc12 | > 4 mM (inactive)
38 | S=C(c1cccnc1)N1CCOCC1 | > 4 mM (inactive)
39 | C[C@H]1O[C@@H](O[C@H]2[C@@H](O)C[C@H](O[C@H]3[C@@H](O)C[C@H](O[C@H]4CC[C@]5(C)C6CC[C@]7(C)[C@@H](C8=CC(=O)OC8)CC[C@]7(O)C6CC[C@@H]5C4)O[C@@H]3C)O[C@@H]2C)C[C@H](O)[C@@H]1O (stereo partly specified) | > 4 mM (inactive)
40 | N[C@@H](Cc1ccc(O)c(O)c1)C(=O)O | > 4 mM (inactive)
41 | NCc1ccc(-n2cccc2)cc1 | > 4 mM (inactive)
42 | O=C1CN2C(=N1)N(Cc1ccccc1)c1ccccc12 | > 4 mM (inactive)
43 | Cc1nn(-c2ccccc2C(=O)O)c(=O)c2ccccc12 | > 4 mM (inactive)
44 | Cc1ccccc1NC(=S)NCCO | > 4 mM (inactive)
45 | COC(=O)c1noc(-c2ccc(OC)cc2)n1 | > 4 mM (inactive)
46 | NS(=O)(=O)c1ccc(NC(=O)c2cccs2)cc1 | > 4 mM (inactive)
47 | CCOc1ccc(C)cc1S(=O)(=O)n1ccc(C)n1 | > 4 mM (inactive)
48 | O=C(C1CCNCC1)N1CCCCCC1 | > 4 mM (inactive)

Row | Compound | Kd
49 | COc1cc2c(cc1OC)[C@@]13CCN4CC5=CCOC6CC(=O)N2C1[C@H]6[C@H]5C[C@H]43 (stereo partly specified) | > 4 mM (inactive)
50 | COc1cc(O)ccc1C(C)=O | > 4 mM (inactive)
51 | Cc1ccc(Nc2nnns2)cc1C | > 4 mM (inactive)
52 | Cc1cc(=O)n2ccc(CN3CCOCC3)c(O)c2n1 | > 4 mM (inactive)
53 | O=C(OC[C@H]1O[C@H](OC(=O)c2cc(O)c(O)c(OC(=O)c3cc(O)c(O)c(O)c3)c2)[C@H](OC(=O)c2cc(O)c(O)c(OC(=O)c3cc(O)c(O)c(O)c3)c2)[C@@H](OC(=O)c2cc(O)c(O)c(OC(=O)c3cc(O)c(O)c(O)c3)c2)[C@@H]1OC(=O)c1cc(O)c(O)c(OC(=O)c2cc(O)c(O)c(O)c2)c1)c1cc(O)c(O)c(OC(=O)c2cc(O)c(O)c(O)c2)c1 | > 4 mM (inactive)
54 | Cc1ccc2c(c1)=C(c1sc(N)nc1O)C(=O)N=2 | > 4 mM (inactive)
55 | O=C(O)Cc1c[nH]c2ccccc12 | > 4 mM (inactive)
56 | O=C(Nc1ccc2c(c1)OCCO2)c1c(F)cccc1F | > 4 mM (inactive)
57 | COc1ccc(-c2ccc(=O)n(CC(N)=O)n2)cc1 | > 4 mM (inactive)
58 | Cc1ccc(C(=O)n2cnnc2N)cc1C | > 4 mM (inactive)
59 | O=NN1C(=O)c2ccccc2C1=O | > 4 mM (inactive)
60 | Cn1cnc2cc(NC(=O)c3ccco3)ccc21 | > 4 mM (inactive)
61 | CCC(CCC(C)[C@H]1CCC2C3CC=C4C[C@@H](O)CC[C@]4(C)C3CC[C@@]21C)C(C)C (stereo partly specified) | > 4 mM (inactive)
62 | COc1cnn(-c2ccccc2)c(=O)c1N(C)C | > 4 mM (inactive)
63 | Cc1cc(C(=O)NC(C)c2ccncc2)cs1 (stereo unspecified) | > 4 mM (inactive)
64 | COc1cc(-c2nnc(NC(C)=O)o2)cc(OC)c1OC | > 4 mM (inactive)
65 | CC(C)NC(=O)c1cc(-n2cnnc2)ccc1Cl | > 4 mM (inactive)
66 | COc1ccc(-c2cc(=O)c3c(O)cc(O[C@@H]4O[C@H](CO[C@H]5O[C@H](C)[C@@H](O)[C@H](O)[C@@H]5O)[C@@H](O)[C@H](O)[C@H]4O)cc3o2)cc1O | > 4 mM (inactive)
67 | COc1ccc(C2CC(=O)c3ccc(OC)cc3O2)cc1 (stereo unspecified) | > 4 mM (inactive)
68 | O=C(Nc1cccnc1)N1CCOCC1 | > 4 mM (inactive)
69 | Nc1nnc(Cc2ccc(Cl)cc2)s1 | > 4 mM (inactive)
70 | CNC(=S)Nc1ccc(C(=O)O)cc1 | > 4 mM (inactive)
71 | C=C(C)C1Cc2c(ccc(C(=O)O)c2O)O1 (stereo unspecified) | > 4 mM (inactive)
72 | CCCCn1c(=O)cc(O)c2ccccc21 | > 4 mM (inactive)

Row | Compound | Kd
73 | Cc1ccc(C(=O)N2CC(=O)NC(=O)C2)cc1 | > 4 mM (inactive)
74 | C=CCSc1[nH]c(=O)cc(C)c1C(N)=O | > 4 mM (inactive)
75 | NC(=O)CSc1nc2ccccc2c(=O)[nH]1 | > 4 mM (inactive)
76 | [O-][n+]1c2ccccc2[n+]([O-])c2cc(O)ccc21 | > 4 mM (inactive)
77 | CCCC(=O)N1CCSCC1 | > 4 mM (inactive)
78 | CC(C)C(=O)NCC(c1ccco1)N1CCOCC1 (stereo unspecified) | > 4 mM (inactive)
79 | COc1cccc(-c2nn(-c3ccccc3)cc2CO)c1 | > 4 mM (inactive)
80 | O=C1NCC(=O)N2CCc3ccccc3C12 (stereo unspecified) | > 4 mM (inactive)
81 | Oc1cc(O)c2c(c1)O[C@H](c1ccc(O)c(O)c1)[C@@H](O)C2 | > 4 mM (inactive)
82 | Cc1nc(-c2cc(C(=O)O)no2)cs1 | > 4 mM (inactive)
83 | O=C(c1ccncc1)N1CCN(C(=O)c2ccco2)CC1 | > 4 mM (inactive)
84 | c1ccc(-c2noc(-c3cccnc3)n2)nc1 | > 4 mM (inactive)
85 | CC12OC(=O)CC3C(C)(C)[C@H](O)C=C[C@]3(C)C1CC[C@]1(C)C2=CC(=O)O[C@H]1c1ccoc1 (stereo partly specified) | > 4 mM (inactive)
86 | O=CN1CCN(C(=O)c2ccccc2F)CC1 | > 4 mM (inactive)
87 | Cc1csc(NC(=O)c2ccoc2C)n1 | > 4 mM (inactive)
88 | OCCCc1nc2ccc(C(F)(F)F)cc2[nH]1 | > 4 mM (inactive)
89 | Nc1scc[n+]1CC(=O)[O-] | > 4 mM (inactive)
90 | Nc1ccc(-n2cccc2)cc1 | > 4 mM (inactive)
91 | O=C(O)c1cccnc1 | > 4 mM (inactive)
92 | Cc1cc(C(=O)Nc2ccccn2)no1 | > 4 mM (inactive)
93 | O=c1c2ccccc2[nH]c2ncccc12 | > 4 mM (inactive)
94 | CC(C1OC(C)(C)C(O)C1O)[C@@H]1CC[C@]2(C)C3=CCC4C(C)(C)C(=O)CC[C@]4(C)C3CC[C@@]12C (stereo partly specified) | > 4 mM (inactive)
95 | COC(=O)c1ccc2nccnc2c1 | > 4 mM (inactive)
96 | O=C(O)Cn1c(=O)sc2ccccc21 | > 4 mM (inactive)

Row | Compound | Kd
97 | CNCc1ccco1 | > 4 mM (inactive)
98 | C(=N\c1ncn[nH]1)/c1cccs1 | > 4 mM (inactive)
99 | COC(=O)Cc1csc(N)n1 | > 4 mM (inactive)
100 | COC(=O)[C@]1(C)CC[C@]2(C)CC[C@]3(C)C4=CCc5c(cc(O)c(O)c5C)[C@]4(C)CC[C@@]3(C)C2C1 (stereo partly specified) | > 4 mM (inactive)
101 | OCCNc1ccccn1 | > 4 mM (inactive)
102 | c1ccc2c(c1)CN1CCCC1=N2 | > 4 mM (inactive)
103 | O=C(Nn1cnnc1)c1csc2c1CCCC2 | > 4 mM (inactive)
104 | CC[C@H]1CN2CCC1C[C@@H]2[C@@H](O)c1ccnc2ccc(OC)cc12 (stereo partly specified) | > 4 mM (inactive)
105 | COC(=O)C1CSCC1=O (stereo unspecified) | > 4 mM (inactive)
106 | Nc1nc(=S)n2c(n1)oc1ccccc12 | > 4 mM (inactive)
107 | Cc1cc(C)n2nc(C(=O)NCc3ccco3)nc2n1 | > 4 mM (inactive)
108 | Cc1noc(-c2ccccc2)c1C(=O)O | > 4 mM (inactive)
109 | CCn1cnc2cc([N+](=O)[O-])ccc2c1=O | > 4 mM (inactive)
110 | CC1(C)N=C2C(=N)C=CC=C2N1O | > 4 mM (inactive)
111 | COc1nc(C)ccc1-c1noc(-c2ccncc2)n1 | > 4 mM (inactive)
112 | NC(=O)CS(=O)(=O)c1ccc(Cl)cc1 | > 4 mM (inactive)
113 | O=C1CCC(=O)N1CN1CCOCC1 | > 4 mM (inactive)
114 | Cc1cc(C)n(S(=O)(=O)c2cc(C)c(C)cc2C)n1 | > 4 mM (inactive)
115 | O=C(/C=C/c1ccco1)NC1=NCCS1 | > 4 mM (inactive)
116 | Cn1cccc1C=C1C(=O)NC(=S)NC1=O | > 4 mM (inactive)
